# Source: patent US20260285857A1, “BICYCLIC AND HETEROCYCLIC AMIDE COMPOUNDS” (priority 2024, published 2026)
# Tested on: immunoglobulin light chain protein WIL-FL T46L
# Test: Differential scanning fluorimetry (thermal shift) assay
# Assay type: binding
# Conditions: not given
row,Structure (SMILES),DSF
1,CNC(=O)c1nc2c(C)cc(N3CC[C@](C)(c4cccc(F)c4)C3)cn2n1 [Compound 32],***** (key: 0-0.5° C.=*; >0.5-1 °C =**; >1-1.5° C.=***; >1.5-2.5° C.=****; >2.5° C.=*****)

# Same assay, conditions: Table A; temperature shift [Tm]compound-[Tm]vehicle; recombinant WIL-FL T46L
row,Structure (SMILES),DSF
1,Cc1cc(N2CC[C@](C)(c3ccccc3)C2)cn2nc(C(=O)N3CCC4(CCN(c5nc(C(=O)O)cs5)C4)C3)nc12 (stereo partly shown) [Compound 218],***** (>2.5° C.=*****)
2,Cc1cc(N2CC[C@](C)(c3ccccc3)C2)cn2nc(C(=O)NC3CCN(c4cc(C(=O)O)ccn4)CC3)nc12 [Compound 227],***** (>2.5° C.=*****)
3,Cc1cc(N2CC[C@](C)(c3ccccc3)C2)cn2nc(C(=O)N3CCn4c(nnc4-c4ccnc(C(=O)O)c4)C3)nc12 [Compound 407],***** (>2.5° C.=*****)
4,Cc1cc(N2CC[C@](C)(c3cccc(F)c3)C2)cn2nc(C(=O)N3CCC(C)(O)C3)nc12 (stereo partly shown) [Compound 385],***** (>2.5° C.=*****)
5,Cc1cc(OC[C@H](C)c2ccccc2)cn2nc(C(=O)O)nc12 [Compound 312],**** (>1.5-2.5° C.=****)
6,Cc1cc(N2CC[C@](C)(c3ccccc3)C2)cn2nc(C34CC(CO)(CO3)C4)nc12 [Compound 60],***** (>2.5° C.=*****)
7,"C[C@]1(c2ccccc2)CCN(c2cc(N)c3cc(C(=O)N4CC[C@@]5(CCN(c6cccc(C(=O)O)n6)C5)C4)nn3c2)C1 [Compound 22, 6-((R)-7-(4-amino-6-((R)-3-methyl-3-phenylpyrrolidin-1-yl)pyrazolo[1,5-a]pyridine-2-carbonyl)-2,7-diazaspiro[4.4]nonan-2-yl)picolinic acid]",**** (>1.5-2.5° C.=****)
8,C[C@@]1(c2ccccc2)CCN(c2cc(CO)c3nc(C(=O)N4CC5CN(c6cccc(C(=O)O)n6)CC5C4)nn3c2)C1 (stereo partly shown) [Compound 347],***** (>2.5° C.=*****)
9,Cc1cc(N2CC[C@](C)(c3ccccc3)C2)cn2nc(C(=O)NC34COC(C#N)(C3)C4)nc12 [Compound 127],***** (>2.5° C.=*****)
10,Cc1cc(N2CC[C@](C)(c3ccccc3)C2)cn2nc(C(=O)NC3CCN(c4ccnc(C(=O)O)c4)CC3)nc12 [Compound 264],***** (>2.5° C.=*****)
11,Cc1cc(N2CC[C@](C)(c3ccccc3)C2)cn2nc(C(=O)N3CCC4(COC4)C3)nc12 [Compound 113],***** (>2.5° C.=*****)
12,Cc1cc(N2CC(C)(c3ccccc3)C2)cn2nc(C(=O)N3CC[C@@]4(CCN(c5cccc(C(=O)O)n5)C4)C3)nc12 [Compound 398],***** (>2.5° C.=*****)
13,Cc1cc(N2CC[C@](C)(c3ccccc3)C2)cn2nc(C(=O)N[C@H]3C[C@](C)(O)C3)nc12 [Compound 167],***** (>2.5° C.=*****)
14,Cc1cc(N2CCC(C)(O)C2)cn2nc(C(=O)N3CC4CN(c5cccc(C(=O)O)n5)CC4C3)nc12 (stereo not shown) [Compound 295],* (0-0.5° C.=*)
15,Cc1cc(N2CC[C@](C)(c3ccccc3)C2)cn2nc(C(=O)N3CCn4c(nnc4-c4cccc(C(=O)O)n4)C3)nc12 [Compound 408],***** (>2.5° C.=*****)
16,Cc1cc(OCC2(c3ccccc3)CC2)cn2nc(C34CC(CO3)C4N)nc12 (stereo not shown) [Compound 96],**** (>1.5-2.5° C.=****)
17,CCS(=O)(=O)Nc1n[nH]c(C2C3COC2(c2nc4c(C)cc(N5CC[C@](C)(c6ccccc6)C5)cn4n2)C3)n1 (stereo partly shown) [Compound 93],***** (>2.5° C.=*****)
18,Cc1cc(N2CC[C@](C)(c3ccccc3)C2)cn2nc(S(=O)(=O)NC3CCNC3)nc12 (stereo partly shown) [Compound 326],***** (>2.5° C.=*****)
19,Cc1cc(N2CCC(C)(c3cccnc3)C2)cn2nc(C(=O)N3CC[C@@]4(CCN(c5cccc(C(=O)O)n5)C4)C3)nc12 (stereo partly shown) [Compound 427],*** (>1-1.5° C.=***)
20,Cc1cc(N2CC[C@](C)(c3ccccc3)C2)cn2nc(C(=O)NCCC(C)(C)O)nc12 [Compound 130],***** (>2.5° C.=*****)
21,Cc1cc(OC(C)c2ccc(F)c(Cl)c2)cn2nc(C(=O)N3CC[C@@]4(CCC(c5cccc(C(=O)O)n5)C4)C3)nc12 (stereo partly shown) [Compound 412],* (0-0.5° C.=*)
22,Cc1cc(N2CC[C@](C)(c3ccccc3)C2)cn2nc(C(=O)NC3CCN(c4cccc(C(=O)O)n4)CC3(C)C)nc12 (stereo partly shown) [Compound 261],***** (>2.5° C.=*****)
23,Cc1cc(N2CC[C@](C)(c3ccc(F)cc3)C2)cn2nc(C(=O)N3CC[C@@]4(CCN(c5cccc(C(=O)O)n5)C4)C3)nc12 [Compound 429],***** (>2.5° C.=*****)
24,Cc1cc(OC[C@H](C)c2ccccc2)cn2nc(C(=O)NCC34COC(C3)C4)nc12 [Compound 306],***** (>2.5° C.=*****)
25,Cc1cc(OCC2(c3ccccc3)CC2)cn2nc(C34CC(N)(CO3)C4)nc12 [Compound 57],***** (>2.5° C.=*****)
26,Cc1cc(N2CC[C@](C)(c3ccccc3)C2)cn2nc(C(=O)NC34CCC(C(=O)O)(C3)OC4)nc12 (stereo partly shown) [Compound 181],***** (>2.5° C.=*****)
27,Cc1cc(N2CC[C@](C)(c3ccccc3)C2)cn2nc(C(=O)NC3CCC(O)(c4cccc(C(=O)O)n4)CC3)nc12 (stereo partly shown) [Compound 269],***** (>2.5° C.=*****)
28,Cc1cc(N2CC[C@](C)(c3ccccc3)C2)cn2nc(C(=O)N3CC4C(C3)C4C(=O)O)nc12 (stereo partly shown) [Compound 158],***** (>2.5° C.=*****)

# Same assay, conditions: Table B; temperature shift [Tm]compound-[Tm]vehicle; recombinant WIL-FL T46L
row,Structure (SMILES),DSF
1,C[C@]1(c2ccccc2)CCN(c2cc(CO)c3nc(C45CC(CO4)C5CO)nn3c2)C1 (stereo partly shown) [Compound 489],***** (>2.5° C.=*****)
2,"Cc1cc(N2CC[C@](C)(c3ccccc3)C2)cn2nc(C34CC(N5CCC(C(=O)O)CC5)(CO3)C4)nc12 [Compound 472, (R)-1-(1-(8-methyl-6-(3-methyl-3-phenylpyrrolidin-1-yl)-[1,2,4]triazolo[1,5-a]pyridin-2-yl)-2-oxabicyclo[2.1.1]hexan-4-yl)piperidine-4-carboxylic acid]",***** (>2.5° C.=*****)
3,Cc1cc(C2C3COC2(c2nc4c(C)cc(N5CC[C@](C)(c6ccccc6)C5)cn4n2)C3)[nH]n1 (stereo partly shown) [Compound 484],***** (>2.5° C.=*****)
4,"Cc1cc(N2CC[C@](C)(c3ccccc3)C2)cn2nc(C34CC(CO3)C4CN3CC4C(C3)C4C(=O)O)nc12 (stereo partly drawn) [Compound 506, 3-((1-(8-methyl-6-((R)-3-methyl-3-phenylpyrrolidin-1-yl)-[1,2,4]triazolo[1,5-a]pyridin-2-yl)-2-oxabicyclo[2.1.1]hexan-5-yl)methyl)-3-azabicyclo[3.1.0]hexane-6-carboxylic acid]",***** (>2.5° C.=*****)
5,"Cc1cc(N2CC[C@](C)(c3ccccc3)C2)cn2nc(C(=O)NC3CC4(C3)CN(c3ccnc(C(=O)O)c3)C4)nc12 [Compound 691, (R)-4-(6-(8-methyl-6-(3-methyl-3-phenylpyrrolidin-1-yl)-[1,2,4]triazolo[1,5-a]pyridine-2-carboxamido)-2-azaspiro[3.3]heptan-2-yl)picolinic acid]",***** (>2.5° C.=*****)
6,Cc1cc(N2CC[C@](C)(c3ccccc3)C2)cn2nc(C34CC(CO3)C4N3C[C@]4(CC[C@@H](C(=O)O)CC4)NC3=O)nc12 (stereo partly shown) [Compound 526],***** (>2.5° C.=*****)
7,Cc1ccc(N2CCC3(CCN(C(=O)c4nc5c(C)cc(N6CC[C@](C)(c7ccccc7)C6)cn5n4)C3)C2)nc1C(=O)O (stereo partly shown) [Compound 627],***** (>2.5° C.=*****)
8,Cc1cc(N2CC[C@](C)(c3ccccc3)C2)cn2nc(C34CC(CO3)C4NCC3(N)CCOCC3)nc12 (stereo partly shown) [Compound 521],***** (>2.5° C.=*****)
9,Cc1cc(N2CC[C@](C)(c3ccccc3)C2)cn2nc(C(=O)N3CCc4c(nnn4C4CCC(C(=O)O)C4)C3)nc12 (stereo partly shown) [Compound 638],***** (>2.5° C.=*****)
10,Cc1cc(N2CC[C@](C)(c3ccccc3)C2)cn2nc(C34CC(C(=O)N[C@@H]5COC[C@H]5O)(CO3)C4)nc12 [Compound 441],***** (>2.5° C.=*****)
11,Cc1cc(N2CC[C@](C)(c3ccccc3)C2)cn2nc(C(=O)N[C@@H]3CN(c4cccc(C(=O)O)n4)CC34CC4)nc12 [Compound 698],***** (>2.5° C.=*****)
12,"Cc1cc(N2CC[C@](C)(c3ccccc3)C2)cn2nc(C(=O)NC3CC4(C3)CN(C(=O)C35CCC(C(=O)O)(CC3)OC5)C4)nc12 [Compound 678, 4-[6-[[8-methyl-6-[(3R)-3-methyl-3-phenyl-pyrrolidin-1-yl]-[1,2,4]triazolo[1,5-a]pyridine-2-carbonyl]amino]-2-azaspiro[3.3]heptane-2-carbonyl]-2-oxabicyclo[2.2.2]octane-1-carboxylic acid]",***** (>2.5° C.=*****)
13,"Cc1cc(N2CC[C@](C)(c3ccccc3)C2)cn2nc(C(=O)NC3CC4(CCN(c5cccc(C(=O)O)n5)CC4)C3)nc12 [Compound 642, 6-[2-[[8-methyl-6-[(3R)-3-methyl-3-phenyl-pyrrolidin-1-yl]-[1,2,4]triazolo[1,5-a]pyridine-2-carbonyl]amino]-7-azaspiro[3.5]nonan-7-yl]pyridine-2-carboxylic acid]",***** (>2.5° C.=*****)
14,COc1ncc(N2CC[C@@]3(CCN(C(=O)c4nc5c(C)cc(N6CC[C@](C)(c7ccccc7)C6)cn5n4)C3)C2)cc1C(=O)O [Compound 718],***** (>2.5° C.=*****)
15,"Cc1cc(N2CC[C@](C)(c3ccccc3)C2)cn2nc(C34CC(CNC(=O)CC(C)(C)O)(CO3)C4)nc12 [Compound 457, (R)-3-hydroxy-3-methyl-N-((1-(8-methyl-6-(3-methyl-3-phenylpyrrolidin-1-yl)-[1,2,4]triazolo[1,5-a]pyridin-2-yl)-2-oxabicyclo[2.1.1]hexan-4-yl)methyl)butanamide]",***** (>2.5° C.=*****)
16,CCC(=O)NCC12COC(c3nc4c(C)cc(N5CC[C@](C)(c6ccccc6)C5)cn4n3)(C1)C2c1n[nH]c(C)n1 (stereo partly shown) [Compound 588],***** (>2.5° C.=*****)
17,COc1cc(C(=O)O)cc(N2CC[C@@]3(CCN(C(=O)c4nc5c(C)cc(N6CC[C@](C)(c7ccccc7)C6)cn5n4)C3)C2)n1 [Compound 719],***** (>2.5° C.=*****)
18,Cc1cc(N2CC[C@](C)(c3ccccc3)C2)cn2nc(C(=O)N[C@@H]3CCCN(c4cccc(C(=O)O)n4)C3)nc12 [Compound 693],***** (>2.5° C.=*****)
19,CCS(=O)(=O)Nc1n[nH]c(C2C3(CN)COC2(c2nc4c(C)cc(N5CC[C@](C)(c6ccccc6)C5)cn4n2)C3)n1 (stereo partly shown) [Compound 548],***** (>2.5° C.=*****)
20,Cc1cc(N2CC[C@](C)(c3ccccc3)C2)cn2nc(C(=O)N3CC4(C3)CN(c3cccc(C(=O)O)n3)CCO4)nc12 [Compound 665],***** (>2.5° C.=*****)
